Values joined by “and” are separate entries in the source; they are usually repeats but may differ in a detail not shown here. Equal values may be shown once. Numbers after ± are expanded uncertainties.
Conditions: Liquid, Closed cell (Static) method

SMILES | vapor or sublimation pressure (332.06 K) [kPa] | vapor or sublimation pressure (332.08 K) | also measured
CC(C)(C)O [2-methylpropan-2-ol] | 36.97 ± 0.42 | – | –
C/C=C/C [(E)-2-butene] | 605.74 ± 2.1 | 606.44 ± 2.1 kPa and 606.14 ± 2.1 kPa | vapor or sublimation pressure (332.04 K): 605.54 ± 2.1 kPa; vapor or sublimation pressure (332.07 K): 606.94 ± 2.1 kPa
CCC(C)O (centres undefined) [butan-2-ol] | – | 17.27 ± 0.4 kPa | –
CCO [ethanol] | 44.67 ± 0.43 | – | –
CO [methanol] | – | 80.97 ± 0.48 kPa | –
CC(C)O [propan-2-ol] | – | – | vapor or sublimation pressure (332.03 K): 36.47 ± 0.42 kPa

Reference: the NIST ThermoML archive (doi:10.1021/je0341256)
